Test results from patent US11944607B2, “Treatment of progressive neurodegenerative disease with ibudilast” (MediciNova, Inc., priority 2007, dated 2024).
“And” between values parts separate entries of the source, which are not always exact repeats. Identical values can stand only once.

What was measured:
[1] = tested on: patients with multiple sclerosis; assay: Phase II placebo-controlled, randomized, double-blind study: relapse and disability (EDSS) outcomes; format: in vivo, human
Method: (§1) A Phase II placebo-controlled, randomized, double-blind study was conducted using ibudilast in patients with multiple sclerosis. During year 1, patients were treated with 0 mg tid (placebo), 10 mg tid or 20 mg tid of ibudilast; during year 2, patients on placebo were randomized to receive either 10 mg tid or 20 mg tid of ibudilast (patients on 10 mg tid or 20 mg tid during the first year of the study continued on that dose during the second year). A baseline MRI scan was taken two weeks prior to treatment. Brain volume changes were assessed on an annual basis with subsequent MRI scans. MRI scans were performed every two months of the 2-year period to assess changes in T1 and T2 lesions.

[2] = tested on: rat animal model for Alzheimer's disease; assay: Rat animal model for Alzheimer's disease; format: in vivo; conditions: present-tense example without data
[3] = tested on: animal model for Parkinson's disease; assay: Animal model for Parkinson's disease; format: in vivo; conditions: present-tense example without data
[4] = tested on: patients with multiple sclerosis; assay: Phase II clinical trial: brain volume loss by cranial MRI; format: in vivo, human
Method: as §1

[5] = administered systemically; cited from earlier work
[6] = tested on: animal model for progressive multiple sclerosis; assay: Animal model for progressive multiple sclerosis; format: in vivo; conditions: progressive MS model; present-tense example without data
[7] = tested on: patients with multiple sclerosis; assay: Phase II clinical trial: double-blind MRI analysis of new lesion evolution to persistent black holes; format: in vivo, human; conditions: for Mean Proportion of Lesions Evolving to PBH / Median Proportion of Lesions Evolving to PBH: new lesions at month 2, PBH at month 10
Source text: The study is the result of randomized, double-blind, placebo-controlled analysis of year 1 MRI data with MN-166 administration. MRIs were collected bimonthly during the one year treatment period and were re-evaluated in a double-blind manner for this new analysis. Predefined endpoints for this evaluation were the rate of evolution of new lesions to persistent black holes and remyelinated lesions. The predefined statistical endpoints were at the rate of evolution of new lesions (NL) to persistent black holes (PBH) and remyelinated lesions (RL). New T1 gadolinium-enhancing or new T2 lesions were defined as NL in the first on-study Mill at month 2. […] Hypointense lesions at month 2 or 4 that were isointense at month 10 were RL. Relative Risk (RR) of NL evolution to PBH and RL per patient was analyzed using a general linear model with the error term from the Poisson distribution.

activated microglia = conditions: dose-dependent; cited from earlier work
[8] = 30 mg (N = 94), 2 Years, p = 0.0832 vs Placebo to Active
[9] = 60 mg (N = 98), 2 Years, p = 0.0516 vs Placebo to Active
[10] = 2 Year Active (pooling of 30 mg and 60 mg dose groups), 2 Years, p = 0.0264 vs Placebo to Active
[11] = Placebo to Active (to 30 mg/d), 2 Years (12 months placebo, 12 months drug)
[12] = Placebo to Active (to 60 mg/d), 2 Years (12 months placebo, 12 months drug)
[13] = Placebo to Active pooled (N = 100), 2 Years

CC(C)C(=O)c1c(C(C)C)nn2ccccc12 [ibudilast, 3-isobutyryl-2-isopropylpyrazolo[1,5-a]pyridine]
Disability Progression, number of patients ([1]; 30 mg (N = 94), 1 Year): 5 | Disability Progression, percent of patients ([1]; 30 mg (N = 94), 1 Year): 5.3% | Disability Progression, number of patients [1, 8]: 10 | Disability Progression, percent of patients [1, 8]: (10.6%) | Disability Progression, number of patients ([1]; 60 mg (N = 98), 1 Year): 4 | Disability Progression, percent of patients ([1]; 60 mg (N = 98), 1 Year): 4.1% | Disability Progression, number of patients [1, 9]: 10 | Disability Progression, percent of patients [1, 9]: 10.2% | Disability progression (worsened ≥1.0 on EDSS for 4 mo) (ITT) ([1]; 60 mg/day, year 1 (Table 1), p=0.334 vs pbo): pbo - 8%, 60 mg - 4% | Annualized relapse rate ([1]; 60 mg/day, year 1, ITT, p=0.1106 vs pbo): pbo - 0.9, 60 mg - 0.7 (ITT) | IDSS (AUC of change from baseline EDSS) ([1]; 60 mg/day, year 1, ITT, p=0.1761 vs pbo): pbo: −0.05, 60 mg: −0.16 (ITT) | IDSS (AUC of change from baseline EDSS) ([1]; 60 mg/day, year 1, completers, p=0.0365 vs pbo): pbo: −0.05, 60 mg: −0.24 (completers) | Annualized relapse rate ([1]; 60 mg/day, year 1, completers, p=0.0752 vs pbo): pbo - 0.8, 60 mg - 0.6 (completers) | Time to first relapse (ITT), median ([1]; 60 mg/day, year 1, p=0.0438 vs pbo (pbo 244 days)): Median for 60 mg >1 year | EDSS (% worsened) (ITT) ([1]; 60 mg/day, year 1, p=0.1771 vs pbo): pbo - 30%, 60 mg - 21.4% | % of subjects exacerbation-free for 1 year (ITT) ([1]; 60 mg/day, p=0.033 vs pbo): pbo - 41%, 60 mg - 56.1% | Disability Progression, number of patients [1, 10]: 20/194 | Disability Progression, percent of patients [1, 10]: 10.4% | Likelihood of disability progression (≥1.0 point increase in EDSS for 4 consecutive months) ([1]; 24 months of drug vs 12 months of drug, p=0.026): less likely | Disability Progression, number of patients [1, 11]: 8/51 | Disability Progression, percent of patients [1, 11]: (15.7%) | Disability Progression, number of patients [1, 12]: 13/49 | Disability Progression, percent of patients [1, 12]: (26.5%) | Disability Progression, number of patients [1, 13]: 21/100 | Disability Progression, percent of patients [1, 13]: 21% | Decrease in the rate of sustained disability progression ([1]; extended (at least about two years) administration, compared with patients treated for less than two years): about 50% | Prolongation of time to relapse, average ([1]; extended (at least about two years) administration, compared with untreated patients): about 130 days | Cognitive function [2]: improvement | Locomotion [3]: improvement | Average loss of brain volume ([4]; 60 mg a day, 1-year treatment period, placebo 1.2%, p 0.0352): 0.79% | Brain volume loss compared to the other treatment groups (cranial MRI) ([4]; 60 mg per day for 24 months, p=0.030): significantly less | Brain volume loss compared to placebo (cranial MRI) ([4]; 60 mg per day, after 12 months, p=0.04): significant reduction | Brain volume loss ([4]; extended (at least about two years) administration): reduction | Blood-brain barrier crossing [5]: crosses the blood-brain barrier | Functional outcomes [6]: improvement | # Patients w. New Lesions at Month 2 ([7]; 30 mg/day (n=94)): 64 | Mean Proportion of Lesions Evolving to PBH ([7]; 30 mg/day): 0.20 | Median Proportion of Lesions Evolving to PBH ([7]; 30 mg/day): 0.08 | Relative Risk (for Evolution to PBH) vs. placebo ([7]; 30 mg/day, p=0.074, listed as MN-166): 0.735 and 0.74 | # Patients w. New Lesions at Month 2 ([7]; 60 mg/day (n=98)): 56 | Mean Proportion of Lesions Evolving to PBH ([7]; 60 mg/day): 0.16 | Median Proportion of Lesions Evolving to PBH ([7]; 60 mg/day): 0.04 | Relative Risk (for Evolution to PBH) vs. placebo ([7]; 60 mg/day, p=0.011): 0.63 | Formation of black holes on MRI ([7]; first year of treatment, MS patients): decreased | Conversion of acute lesions to persistent black holes ([7]; overall benefit statement for extended administration): reduction | Production of IL-10, NGF, GDNF and NT-4 (activated microglia): enhance | Production of nitric oxide (NO), reactive oxygen species, IL-1beta, IL-6 and TNF (activated microglia): suppress
